Patent US20250332266A1, “COMPOUNDS FOR THE DEGRADATION OF EGFR KINASE” (BeiGene Switzerland GmbH, priority 2022, published 2025)

Key:
[1] = target: T1, EGFR L858R/T790M/C797S (H1975-clone #25) (Homo sapiens, UniProt P00533, C797S/L858R/T790M); assay: EGFR degradation, HTRF total-EGFR assay, H1975-clone #25 (LTC); assay type: cell-based; conditions: H1975-clone #25 L858R/T790M/C797S, 16 h treatment
T1 construct: expressed in transfected cells; host or cells: H1975 (clone #25), lentiviral transduction, endogenous EGFR knocked out
T1 sequence (P00533 25-1210 T790M/C797S/L858R): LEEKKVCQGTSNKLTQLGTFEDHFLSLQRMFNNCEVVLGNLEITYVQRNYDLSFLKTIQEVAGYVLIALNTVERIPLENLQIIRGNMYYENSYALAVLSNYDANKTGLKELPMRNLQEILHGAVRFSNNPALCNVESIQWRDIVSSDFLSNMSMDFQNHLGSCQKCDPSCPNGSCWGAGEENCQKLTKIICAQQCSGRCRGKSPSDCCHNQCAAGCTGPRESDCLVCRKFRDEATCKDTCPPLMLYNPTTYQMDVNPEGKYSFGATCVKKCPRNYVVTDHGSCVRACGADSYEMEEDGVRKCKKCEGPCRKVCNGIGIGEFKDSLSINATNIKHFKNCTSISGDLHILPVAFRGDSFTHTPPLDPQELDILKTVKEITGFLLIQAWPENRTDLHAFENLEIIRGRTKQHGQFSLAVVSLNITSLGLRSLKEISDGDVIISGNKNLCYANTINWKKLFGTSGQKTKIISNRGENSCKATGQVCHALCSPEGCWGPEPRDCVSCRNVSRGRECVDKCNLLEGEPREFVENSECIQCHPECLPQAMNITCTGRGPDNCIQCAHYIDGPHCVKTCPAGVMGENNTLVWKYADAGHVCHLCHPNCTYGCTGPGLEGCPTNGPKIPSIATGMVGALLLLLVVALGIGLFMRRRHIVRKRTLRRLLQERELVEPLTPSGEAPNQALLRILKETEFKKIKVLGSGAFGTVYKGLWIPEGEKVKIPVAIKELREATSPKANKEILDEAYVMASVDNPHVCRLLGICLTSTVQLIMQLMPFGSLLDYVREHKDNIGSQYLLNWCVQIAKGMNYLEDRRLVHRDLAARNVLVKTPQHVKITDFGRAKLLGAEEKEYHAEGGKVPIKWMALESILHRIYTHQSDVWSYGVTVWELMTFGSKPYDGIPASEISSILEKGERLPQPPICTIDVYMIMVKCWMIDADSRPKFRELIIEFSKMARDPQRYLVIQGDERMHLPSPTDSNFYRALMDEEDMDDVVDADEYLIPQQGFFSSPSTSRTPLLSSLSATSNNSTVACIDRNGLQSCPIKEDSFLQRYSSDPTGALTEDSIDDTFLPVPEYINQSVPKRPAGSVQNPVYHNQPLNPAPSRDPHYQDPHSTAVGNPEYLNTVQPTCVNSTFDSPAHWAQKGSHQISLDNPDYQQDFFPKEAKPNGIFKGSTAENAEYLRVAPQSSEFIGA
Excerpt: (§1) H1975-clone #28 (Del19/T790M/C797S, or abbr: DTC), H1975-clone #23 (Del19/C797S, or abbr: DC), H1975-clone #25 (L858R/T790M/C797S, or abbr: LTC) and H1975-clone #8 (L858R/C797S, or abbr: LC). EGFR-Del19/T790M/C797S, EGFR-Del19/C797S, EGFR-L858R/T790M/C797S and EGFR-L858R/C797S were stably expressed in H1975 cell lines by lentivirus-mediated over-expression, respectively. The EGFR over-expressed cells then underwent knockout, in which the EGFR targeting sgRNA was designed to only target the endogenous EGFR copies and preserve the exogenous EGFR copies. Followed by the knockout, the edited H1975 cells were seeded in 96 well plates at the concentration of 1 cell/well, cultured for about 2 weeks to allow single clones formation. The formed clones were screened by DNA sequencing and whole exon sequencing analysis for the desired edition. H1975-clone #28, H1975-clone #23, H1975-clone #25 and H1975-clone #8 were finally confirmed as homozygous Del19/T790M/C797S EGFR, Del19/C797S EGFR, L858R/T790M/C797S EGFR and L858R/C797S EGFR clones, respectively.
(§2) H1975-#25, H1975-#28, H1975-#23 and H1975-#8 cells are treated with compounds diluted in 0.2% DMSO cell culture medium on day 2, incubate for 16 h, 37° C., 5% CO2. The final concentration of compounds in all assay is start with 10 μM, 5-fold dilution, total 8 doses were included.
(§3) Total-EGFR cellular kit(64NG1PEH) were used for evaluating EGFR degradation.
(§4) After 16 h treatment, add HTRF lysis buffer to each well; seal the plate and incubate 1 hour at room temperature on a plate shaker; Once the cells are lysed, 16 μL of cell lysate are transferred to a PE 384-well HTRF detection plate; 4 μL of pre-mixed HTRF antibodies are added to each well; cover the plate with a plate sealer, spin 1000 rpm for 1 min, incubate overnight at room temperature; read on BMG PheraStar with HTRF protocol (337 nm-665 nm-620 nm).
(§5) The inhibition (degradation) percentage of the compound was calculated by the following equation:
(§6) Inhibition percentage of Compound=100−100×(Signal−low control)/(High control−low control), wherein signal=each test compound group
(§7) High control=Cell group with added DMSO and without compound, indicating microplate readings without EGFR degradation.
(§8) Imax (Dmax) is the maximum percentage of inhibition (degradation).
(§9) The IC50 (DC50) value of a compound can be obtained by fitting the following equation
(§10) Wherein, X and Y are known values, and IC50, Hillslope, Top and Bottom are the parameters obtained by fitting with software. Y is the inhibition percentage (calculated from the equation), X is the concentration of the compound; IC50 is the concentration of the compound when the 50% inhibition is reached. The smaller the IC50 value is, the stronger the inhibitory ability of the compound is. Vice versa, the higher the IC50 value is, the weaker the ability the inhibitory ability of the compound is; Hillslope represents the slope of the fitted curve, generally around 1*; Bottom represents the minimum value of the curve obtained by data fitting, which is generally 0%±20%; Top represents the maximum value of the curve obtained by data fitting, which is generally 100%±20%. The experimental data were fitted by calculating and analyzing with Dotmatics data analysis software.

[2] = target: EGFR Del19/T790M/C797S (H1975-clone #28) (Homo sapiens, UniProt P00533, T790M/C797S, form not given); assay: EGFR degradation, HTRF total-EGFR assay, H1975-clone #28 (DTC); assay type: cell-based; conditions: H1975-clone #28 Del19/T790M/C797S, 16 h treatment
Sequence of EGFR Del19/T790M/C797S (H1975-clone #28) (P00533 with tags, fused parts or gaps DEL746-750/T790M/C797S, form open): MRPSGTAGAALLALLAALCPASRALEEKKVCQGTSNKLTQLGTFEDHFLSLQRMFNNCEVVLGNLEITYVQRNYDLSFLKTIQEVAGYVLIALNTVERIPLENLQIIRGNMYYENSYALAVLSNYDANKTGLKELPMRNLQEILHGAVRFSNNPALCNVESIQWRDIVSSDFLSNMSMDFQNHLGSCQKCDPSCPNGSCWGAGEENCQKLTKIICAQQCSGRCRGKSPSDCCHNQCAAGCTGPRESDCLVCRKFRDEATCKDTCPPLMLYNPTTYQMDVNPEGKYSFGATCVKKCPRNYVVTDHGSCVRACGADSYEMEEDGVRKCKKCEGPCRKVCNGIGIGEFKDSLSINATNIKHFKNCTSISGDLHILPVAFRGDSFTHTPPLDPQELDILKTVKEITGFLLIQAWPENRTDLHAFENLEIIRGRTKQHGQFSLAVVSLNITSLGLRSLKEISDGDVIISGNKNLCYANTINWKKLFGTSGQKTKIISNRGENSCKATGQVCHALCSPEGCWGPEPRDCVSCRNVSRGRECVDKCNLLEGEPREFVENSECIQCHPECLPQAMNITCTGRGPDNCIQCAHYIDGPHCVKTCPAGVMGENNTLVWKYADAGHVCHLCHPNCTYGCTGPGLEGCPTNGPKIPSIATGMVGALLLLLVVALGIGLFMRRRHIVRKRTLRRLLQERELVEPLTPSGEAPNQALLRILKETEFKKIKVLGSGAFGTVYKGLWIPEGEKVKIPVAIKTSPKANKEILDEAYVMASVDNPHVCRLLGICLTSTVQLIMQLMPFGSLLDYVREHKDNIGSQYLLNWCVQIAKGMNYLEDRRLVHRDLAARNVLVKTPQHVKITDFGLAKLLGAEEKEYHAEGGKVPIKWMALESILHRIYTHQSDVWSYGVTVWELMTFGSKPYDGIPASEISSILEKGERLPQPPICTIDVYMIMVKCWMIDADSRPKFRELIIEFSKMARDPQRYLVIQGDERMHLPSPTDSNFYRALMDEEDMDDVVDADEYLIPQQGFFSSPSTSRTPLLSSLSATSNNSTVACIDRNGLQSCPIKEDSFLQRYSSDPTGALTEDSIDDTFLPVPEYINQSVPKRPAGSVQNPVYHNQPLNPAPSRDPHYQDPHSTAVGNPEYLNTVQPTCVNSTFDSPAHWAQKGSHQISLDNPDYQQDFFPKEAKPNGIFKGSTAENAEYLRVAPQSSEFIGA
Excerpt: as §1, §2, §3, §4, §5, §6, §7, §8, §9, §10

| Compound | Degradation H1975 # 25-LTC [1] | Degradation H1975 # 28 DTC [2] |
| --- | --- | --- |
| Cc1cc2cc(n1)-c1cnn(C)c1OC[C@H]1C[C@@H](CN3/C(=N/C2=O)Nc2ccc(N4CCN(C5CCN(c6ccc(C7CCC(=O)NC7=O)nc6C)CC5)CC4)cc23)C1 (stereo partly shown) [Example 21, 3-(5-(4-(4-((7^1s,7^3s,E)-1^1,2^6-dimethyl-3-oxo-5^2,5^3-dihydro-1H,5^1H-9-oxa-4-aza-5(2,1)-benzo[d]imidazola-2(2,4)-pyridina-1(4,5)-pyrazola-7(1,3)-cyclobutanacyclononaphane-5^6-yl)piperazin-1-yl)piperidin-1-yl)-6-methylpyridin-2-yl)piperidine-2,6-dione] | 94.0 | 91.5 |
| Cc1cc2cc(n1)-c1cnn(C)c1OC[C@H]1C[C@@H](CN3/C(=N/C2=O)Nc2ccc(N4CCN(C5CCN(c6ccc(C7CCC(=O)NC7=O)nc6C)CC5)CC4=O)cc23)C1 (stereo partly shown) [Example 22, 3-(5-(4-(4-((7^1s,7^3s,E)-1^1,2^6-dimethyl-3-oxo-5^2,5^3-dihydro-1^1H,5^1H-9-oxa-4-aza-5(2,1)-benzo[d]imidazola-2(2,4)-pyridina-1(4,5)-pyrazola-7(1,3)-cyclobutanacyclononaphane-5^6-yl)-3-oxopiperazin-1-yl)piperidin-1-yl)-6-methylpyridin-2-yl)piperidine-2,6-dione] | 91.7 | 89.5 |
| COC[C@H]1CN(c2ccc3c(c2)N2C[C@H]4C[C@@H](COc5c(cnn5C)-c5cc(cc(C)n5)C(=O)/N=C/2N3)C4)CCN1C1CCN(c2cnc(C3CCC(=O)NC3=O)cc2C)CC1 (stereo partly drawn) [Example 23, 3-(5-(4-((R)-4-((7^1s,7^3S,E)-1^1,2^6-dimethyl-3-oxo-5^2,5^3-dihydro-1^1H,5^1H-9-oxa-4-aza-5(2,1)-benzo[d]imidazola-2(2,4)-pyridina-1(4,5)-pyrazola-7(1,3)-cyclobutanacyclononaphane-5^6-yl)-2-(methoxymethyl)piperazin-1-yl)piperidin-1-yl)-4-methylpyridin-2-yl)piperidine-2,6-dione] | 91.3 | 87.0 |
| COC[C@H]1CN(c2ccc3c(c2)N2C[C@H]4C[C@@H](COc5c(cnn5C)-c5cc(cc(C)n5)C(=O)/N=C/2N3)C4)CCN1C1CCN(c2ccc(C3CCC(=O)NC3=O)nc2C)CC1 (stereo partly drawn) [Example 24, 3-(5-(4-((R)-4-((7^1s,7^3S,E)-1^1,2^6-dimethyl-3-oxo-5^2,5^3-dihydro-1^1H,5^1H-9-oxa-4-aza-5(2,1)-benzo[d]imidazola-2(2,4)-pyridina-1(4,5)-pyrazola-7(1,3)-cyclobutanacyclononaphane-5^6-yl)-2-(methoxymethyl)piperazin-1-yl)piperidin-1-yl)-6-methylpyridin-2-yl)piperidine-2,6-dione] | 91.7 | 88.0 |
| Cc1cc2cc(n1)-c1cnn(C)c1OC[C@H]1C[C@@H](CN3/C(=N/C2=O)Nc2ccc(N4CCN(C5CN(c6cc(F)c([C@H]7CCC(=O)NC7=O)c(F)c6)C5)CC4)cc23)C1 [Example 29, (R)-3-(4-(3-(4-((7^1s,7^3s,E)-1^1,2^6-dimethyl-3-oxo-5^2,5^3-dihydro-1^1H,5^1H-9-oxa-4-aza-5(2,1)-benzo[d]imidazola-2(2,4)-pyridina-1(4,5)-pyrazola-7(1,3)-cyclobutanacyclononaphane-5^6-yl)piperazin-1-yl)azetidin-1-yl)-2,6-difluorophenyl)piperidine-2,6-dione] | 42.6 | 78.3 |

Results, then the molecule that gave them:

| Degradation H1975 # 25-LTC [1] | Degradation H1975 # 28 DTC [2] | Compound |
| --- | --- | --- |
| 92.5 | 89.8 | COC[C@@H]1CN(c2ccc3c(c2)N2C[C@H]4C[C@@H](COc5c(cnn5C)-c5cc(cc(C)n5)C(=O)/N=C/2N3)C4)CCN1C1CCN(c2cc(F)c([C@H]3CCC(=O)NC3=O)c(F)c2)CC1 [Example 20, (R)-3-(4-(4-((S)-4-((7^1s,7^3R,E)-1^1,2^6-dimethyl-3-oxo-5^2,5^3-dihydro-1^1H,5^1H-9-oxa-4-aza-5(2,1)-benzo[d]imidazola-2(2,4)-pyridina-1(4,5)-pyrazola-7(1,3)-cyclobutanacyclononaphane-5^6-yl)-2-(methoxymethyl)piperazin-1-yl)piperidin-1-yl)-2,6-difluorophenyl)piperidine-2,6-dione] |
| 83.4 | 89.9 | Cc1cc2cc(n1)-c1cnn(C)c1OC[C@H]1C[C@@H](CN3/C(=N/C2=O)Nc2ccc(N4CCN(C5CCN(c6cc(F)c([C@H]7CCC(=O)NC7=O)c(F)c6)CC5)C(=O)C4)cc23)C1 [Example 25, (R)-3-(4-(4-(4-((7^1s,7^3s,E)-1^1,2^6-dimethyl-3-oxo-5^2,5^3-dihydro-1^1H,5^1H-9-oxa-4-aza-5(2,1)-benzo[d]imidazola-2(2,4)-pyridina-1(4,5)-pyrazola-7(1,3)-cyclobutanacyclononaphane-5^6-yl)-2-oxopiperazin-1-yl)piperidin-1-yl)-2,6-difluorophenyl)piperine-2,6-dione] |
| 92.1 | 90.8 | Cc1cc2cc(n1)-c1cnn(C)c1OC[C@H]1C[C@@H](CN3/C(=N/C2=O)Nc2ccc(N4CCN(C5CCN(c6ccc(C7CCC(=O)NC7=O)nc6C)CC5)C(=O)C4)cc23)C1 (stereo partly shown) [Example 26, 3-(5-(4-(4-((7^1s,7^3s,E)-1^1,2^6-dimethyl-3-oxo-5^2,5^3-dihydro-1^1H,5^1H-9-oxa-4-aza-5(2,1)-benzo[d]imidazola-2(2,4)-pyridina-1(4,5)-pyrazola-7(1,3)-cyclobutanacyclononaphane-5^6-yl)-2-oxopiperazin-1-yl)piperidin-1-yl)-6-methylpyridin-2-yl)piperidine-2,6-dione] |
| 89.6 | 84.7 | COC[C@H]1CN(c2ccc3c(c2)N2C[C@H]4C[C@@H](COc5c(cnn5C)-c5cc(cc(C)n5)C(=O)/N=C/2N3)C4)CCN1C1CCN(c2cc(F)c([C@H]3CCC(=O)NC3=O)c(F)c2)CC1 [Example 27, (R)-3-(4-(4-((R)-4-((7^1s,7^3S,E)-1^1,2^6-dimethyl-3-oxo-5^2,5^3-dihydro-1^1H,5^1H-9-oxa-4-aza-5(2,1)-benzo[d]imidazola-2(2,4)-pyridina-1(4,5)-pyrazola-7(1,3)-cyclobutanacyclononaphane-5^6-yl)-2-(methoxymethyl)piperazin-1-yl)piperidin-1-yl)-2,6-difluorophenyl)piperidine-2,6-dione] |
| 92.1 | 79.8 | Cc1cc2cc(n1)-c1cnn(C)c1OC[C@H]1C[C@@H](CN3/C(=N/C2=O)Nc2ccc(N4CCC(N5CCN(c6ccc(C7CCC(=O)NC7=O)nc6C)CC5)CC4)cc23)C1 (stereo partly shown) [Example 28, 3-(5-(4-(1-((7^1s,7^3s,E)-1^1,2^6-dimethyl-3-oxo-5^2,5^3-dihydro-1^1H,5^1H-9-oxa-4-aza-5(2,1)-benzo[d]imidazola-2(2,4)-pyridina-1(4,5)-pyrazola-7(1,3)-cyclobutanacyclononaphane-5^6-yl)piperidin-4-yl)piperazin-1-yl)-6-methylpyridin-2-yl)piperidine-2,6-dione] |
| 90.3 | 84.4 | Cc1cc2cc(n1)-c1cnn(C)c1OC[C@H]1C[C@@H](CN3/C(=N/C2=O)Nc2ccc(N4CCN(C5CCN(c6cc(F)c([C@H]7CCC(=O)NC7=O)c(F)c6)CC5)[C@H](CO)C4)cc23)C1 [Example 30, (R)-3-(4-(4-((S)-4-((7^1s,7^3R,E)-1^1,2^6-dimethyl-3-oxo-5^2,5^3-dihydro-1^1H,5^1H-9-oxa-4-aza-5(2,1)-benzo[d]imidazola-2(2,4)-pyridina-1(4,5)-pyrazola-7(1,3)-cyclobutanacyclononaphane-5^6-yl)-2-(hydroxymethyl)piperazin-1-yl)piperidin-1-yl)-2,6-difluorophenyl)piperidine-2,6-dione] |
